The values that follow come from patent US8440638B2, “Compositions and methods for modulating calcium flux, glucose homeostasis and apoptosis” (Wisconsin Alumni Research Foundation, priority 2004, dated 2013).

The test system of data set [1] is TRPM2-expressing HEK-293 cells. Description: Cell viability assay (calcein fluorescence), tet-inducible TRPM2 HEK-293 cells. It counts as cell-based. As to the method: Shown are HEK-293 cells (closed diamond) and HEK-293 cells stably transfected with a tet-controlled TRPM2 construct in the presence (open squares) or absence of (open diamonds) tetracycline. […] TRPM2-expressing HEK-293 cells were grown in complete DMEM media and 1 μg/ml tetracycline until 80-90% confluent. One set of cells were re-fed with the same complete media (closed diamonds) and the other set of cells were rinsed with PBS and fed with modified media containing 1 μg/ml tetracycline, 5 mM EGTA and without calcium chloride (open squares). […] HEK-293 (close diamond) and TRPM2 expressing HEK-293 cells in the absence (open diamond) or presence of (closed square) tetracycline were exposed to 0-10 μg/ml cycloheximide for 16 h. Cell viability was determined as described in (a).
TRPM2-expressing HEK-293 cells were exposed to 0-50 μM puromycin for 16 h in the presence (open diamond) or absence (closed diamond) of 500 μM nicotinamide. […] TRPM2-expressing HEK-293 cells were exposed to 0-50 μM puromycin for 16 h in the presence (open diamond) or absence (closed diamond) of 1.5 mM 3-aminobenzamide. Cell survival was determined as described in (a).
HEK-293 and tetracycline (tet)-inducible HEK-293 TRPM2-expressing cells (23) were cultured in DMEM and 10% FBS at 37° C., 5% CO2. Media used to culture tet-inducible HEK-293 cells was supplemented with blasticidin (5 μg ml^−1; Invitrogen) and zeocin (0.4 mg/ml; Invitrogen). To induce expression of TRPM2 in recombinant HEK-293 cells, tetracycline was added to the media at 1 μg ml^−1 (Invitrogen) 24 h prior to experiments. The CRI-G1 rat β-islet tumor cell line was obtained from EACC and cultured in DMEM, 10% FBS and 2 mM glutamine.
HEK-293, tet-inducible HEK-293, and CRI-G1 cells were seeded into 6 well plates at a density of 500,000 cells per well. When cells were 50-70% confluent, puromycin was added to the media at various concentrations for 16 hours. Cell monolayers were rinsed with PBS, after which 0.5 ml of 2 μM calcein in PBS was added directly to the well for 10-20 minutes. Calcein is retained in living, but not dead cells, where it undergoes catalytic conversion into a fluorescent compound Fluorescence in each well was measured in a microplate reader using excitation and emission filters at 485/530 nm, respectively.

In a further data set the test system is CRI-G1 cells. In words: Cell viability assay (calcein fluorescence), CRI-G1 cells. It counts as cell-based, rat. The note with it: 0.5-20 mM nicotinamide, 20 μM puromycin, 16 h. As to the method: FIG. 4 a) OAADPr gates the endogenous TRPM2 channel in CRI-G1 cells. Left panel: Evolution of currents in CRI-G1 cells in the absence (grey squares) or presence (black circles) of OAADPr (120-250 μM). Shown are average leak subtracted currents from n=3 cells for each condition. Right panel: Representative leak subtracted whole cell I/V curves for peak currents observed in the absence (grey line) and presence (black line) of OAADPr. For the above measurements, CRI-G1 cells were maintained in the whole cell patch clamp configuration as previously described for HEK-293 cells (44). b) Puromycin leads to cell death in CRI-G1 cells. CRI-G1 cells were treated with 0-40 μM puromycin for 16 h. Cell viability was assessed by measuring fluorescence of calcein in live cells. Data obtained from 4 independent experiments were plotted as a percent change in fluorescence compared to those of untreated cells set at a 100%. Error bars indicate the standard deviation from the mean. (Inset) Nicotinamide rescues puromycin-induced death in CRI-G1 cells. […] Cell viability was assessed 16 h later as described above. […] Calcein is retained in living, but not dead cells, where it undergoes catalytic conversion into a fluorescent compound Fluorescence in each well was measured in a microplate reader using excitation and emission filters at 485/530 nm, respectively.

In data set [2] the test system is insulin-producing β-cells. To be noted: prophylactic treatment; alloxan and streptozotocin models (ref. 48); cited from earlier work.
A further data set concerns Sir2 homologs. Description: NAD+-dependent histone deacetylase activity of HEK-293 protein extracts. The class given is biochemical. To be noted: data not shown.
For a further data set, the target named is T1, TRPM2 channel (Homo sapiens, UniProt O94759).
T1 construct: expressed in transfected cells; host or cells: tetracycline-inducible HEK-293
T1 sequence (O94759 whole entry): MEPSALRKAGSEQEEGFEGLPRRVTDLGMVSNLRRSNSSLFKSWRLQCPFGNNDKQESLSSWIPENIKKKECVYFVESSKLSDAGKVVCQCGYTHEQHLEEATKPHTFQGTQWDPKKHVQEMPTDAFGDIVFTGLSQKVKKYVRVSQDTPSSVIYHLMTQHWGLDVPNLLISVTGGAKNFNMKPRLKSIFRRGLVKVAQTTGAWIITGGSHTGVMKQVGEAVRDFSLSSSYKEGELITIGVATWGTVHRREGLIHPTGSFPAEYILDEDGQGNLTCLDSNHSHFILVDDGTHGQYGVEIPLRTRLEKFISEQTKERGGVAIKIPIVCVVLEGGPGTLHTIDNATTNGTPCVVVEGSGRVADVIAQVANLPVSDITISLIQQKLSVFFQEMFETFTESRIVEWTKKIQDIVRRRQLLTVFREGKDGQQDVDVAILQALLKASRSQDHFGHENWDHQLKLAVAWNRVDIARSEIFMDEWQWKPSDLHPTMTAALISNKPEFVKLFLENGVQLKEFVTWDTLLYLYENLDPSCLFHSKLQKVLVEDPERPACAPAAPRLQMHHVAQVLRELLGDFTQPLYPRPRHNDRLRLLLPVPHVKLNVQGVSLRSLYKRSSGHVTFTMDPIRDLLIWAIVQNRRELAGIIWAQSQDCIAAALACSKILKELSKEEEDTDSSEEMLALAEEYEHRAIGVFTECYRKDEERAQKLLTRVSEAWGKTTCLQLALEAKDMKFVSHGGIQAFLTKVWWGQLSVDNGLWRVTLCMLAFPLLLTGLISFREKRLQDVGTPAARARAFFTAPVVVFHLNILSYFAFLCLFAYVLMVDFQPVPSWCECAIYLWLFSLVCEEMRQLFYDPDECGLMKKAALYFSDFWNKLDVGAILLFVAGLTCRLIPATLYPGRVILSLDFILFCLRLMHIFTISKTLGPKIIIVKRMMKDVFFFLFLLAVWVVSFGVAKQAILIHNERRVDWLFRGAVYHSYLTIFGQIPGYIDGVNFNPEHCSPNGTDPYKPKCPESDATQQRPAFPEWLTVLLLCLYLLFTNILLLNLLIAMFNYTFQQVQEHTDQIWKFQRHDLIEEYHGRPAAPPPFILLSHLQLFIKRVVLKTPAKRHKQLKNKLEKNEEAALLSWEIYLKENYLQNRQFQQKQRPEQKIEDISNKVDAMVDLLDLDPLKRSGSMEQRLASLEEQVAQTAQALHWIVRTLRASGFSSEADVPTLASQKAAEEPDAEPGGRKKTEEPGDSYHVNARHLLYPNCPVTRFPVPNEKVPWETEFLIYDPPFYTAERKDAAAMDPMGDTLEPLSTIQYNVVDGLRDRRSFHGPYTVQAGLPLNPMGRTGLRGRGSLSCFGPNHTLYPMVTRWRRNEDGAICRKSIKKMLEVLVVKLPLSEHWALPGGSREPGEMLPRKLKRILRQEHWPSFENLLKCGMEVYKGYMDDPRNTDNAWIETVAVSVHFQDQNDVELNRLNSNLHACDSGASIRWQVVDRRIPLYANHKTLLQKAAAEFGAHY
In words: Whole cell patch clamp, TRPM2 channel gating in tet-induced TRPM2-expressing HEK-293 cells. The class given is cell-based. To be noted: OAADPr in patch pipette solution; similar kinetics and dose dependence to ADP-ribose. The protocol:
Shown is the development of whole cell currents over time in TRPM2-expressing HEK-293 cells. Bath solution was standard ringer's, and pipette solution was Cs-based and included 10 mM EGTA to buffer intracellular Ca^2+ to 10 nM. The patch pipette contained various concentrations of (FIG. 1a) ADPr, (FIG. 1b) OAADPr (FIG. 1c) OAADPr and puromycin as indicated in the figure. FIG. 1d.) Cytoplasmic OAADPr esterase activity is inhibited by puromycin. 200 μM O-[^3H]AADPr and 0-100 μM puromycin were added to cytoplasmic HEK-293 extract for 30 min. Percent hydrolysis of O-[^3H]AADPr to [^3H]acetate was measured as described hereinbelow. FIG. 1e.) Nuclear OAADPr acetyltransferase activity is not inhibited by puromycin. HEK-293 nuclear extract was incubated with 200 μM O-[^3H]AADPr in the presence or absence of 100 μM puromycin for 60 min. The reactions were quenched and resolved by HPLC. The radioactivity in collected fractions was determined by liquid scintillation counting. FIGS. 1f-g.) In vivo detection of OAADPr. Mass spectrum of HEK-293 generated OAADPr (peak m/z of 602.0894; the theoretical m/z for OAADPr is 602.0895) after puromycin treatment, with authentic [^13C]-OAADPr (peak m/z of 603.0851 and isotopic distribution of 604.0878 and 605.0928) as a standard. Peak 599.3691 is from the matrix.
Patch clamp electrophysiology was performed as previously described (23). Briefly, cells were patch clamped in the whole cell configuration at 25° C. using pipettes with resistances ranging from 2-3 MOhms. Currents were recorded on an EPC9 patch clamp amplifier with automatic capacitance compensation using a protocol generating a 50 msec voltage ramp from −100 to +100 mv every two seconds at a holding potential of 0 mv (appropriately corrected for liquid junction potential). Bath solution included 150 mM NaCl, 2.8 mM KCl, 5 mM CsCl, 1 mM CaCl2, 2 mM MgCl2, and 10 mM Hepes (pH 7.2). Pipette solution included 135 mM CsGlutamate, 1 mM MgCl2, 8 mM NaCl, 10 mM Hepes (pH 7.2), and 10 mM EGTA. […]
In general terms: The patch-clamp technique gives a direct electrical read-out from membranes.

Another data set deals with T2, endogenous TRPM2 channel (Rattus norvegicus, UniProt E9PTA2).
T2 construct: direct OAADPr-mediated gating of endogenous TRPM2 channels in CRI-G1 cells; endogenous in cells; host or cells: CRI-G1 rat beta-islet tumor cell line
T2 sequence (E9PTA2 whole entry): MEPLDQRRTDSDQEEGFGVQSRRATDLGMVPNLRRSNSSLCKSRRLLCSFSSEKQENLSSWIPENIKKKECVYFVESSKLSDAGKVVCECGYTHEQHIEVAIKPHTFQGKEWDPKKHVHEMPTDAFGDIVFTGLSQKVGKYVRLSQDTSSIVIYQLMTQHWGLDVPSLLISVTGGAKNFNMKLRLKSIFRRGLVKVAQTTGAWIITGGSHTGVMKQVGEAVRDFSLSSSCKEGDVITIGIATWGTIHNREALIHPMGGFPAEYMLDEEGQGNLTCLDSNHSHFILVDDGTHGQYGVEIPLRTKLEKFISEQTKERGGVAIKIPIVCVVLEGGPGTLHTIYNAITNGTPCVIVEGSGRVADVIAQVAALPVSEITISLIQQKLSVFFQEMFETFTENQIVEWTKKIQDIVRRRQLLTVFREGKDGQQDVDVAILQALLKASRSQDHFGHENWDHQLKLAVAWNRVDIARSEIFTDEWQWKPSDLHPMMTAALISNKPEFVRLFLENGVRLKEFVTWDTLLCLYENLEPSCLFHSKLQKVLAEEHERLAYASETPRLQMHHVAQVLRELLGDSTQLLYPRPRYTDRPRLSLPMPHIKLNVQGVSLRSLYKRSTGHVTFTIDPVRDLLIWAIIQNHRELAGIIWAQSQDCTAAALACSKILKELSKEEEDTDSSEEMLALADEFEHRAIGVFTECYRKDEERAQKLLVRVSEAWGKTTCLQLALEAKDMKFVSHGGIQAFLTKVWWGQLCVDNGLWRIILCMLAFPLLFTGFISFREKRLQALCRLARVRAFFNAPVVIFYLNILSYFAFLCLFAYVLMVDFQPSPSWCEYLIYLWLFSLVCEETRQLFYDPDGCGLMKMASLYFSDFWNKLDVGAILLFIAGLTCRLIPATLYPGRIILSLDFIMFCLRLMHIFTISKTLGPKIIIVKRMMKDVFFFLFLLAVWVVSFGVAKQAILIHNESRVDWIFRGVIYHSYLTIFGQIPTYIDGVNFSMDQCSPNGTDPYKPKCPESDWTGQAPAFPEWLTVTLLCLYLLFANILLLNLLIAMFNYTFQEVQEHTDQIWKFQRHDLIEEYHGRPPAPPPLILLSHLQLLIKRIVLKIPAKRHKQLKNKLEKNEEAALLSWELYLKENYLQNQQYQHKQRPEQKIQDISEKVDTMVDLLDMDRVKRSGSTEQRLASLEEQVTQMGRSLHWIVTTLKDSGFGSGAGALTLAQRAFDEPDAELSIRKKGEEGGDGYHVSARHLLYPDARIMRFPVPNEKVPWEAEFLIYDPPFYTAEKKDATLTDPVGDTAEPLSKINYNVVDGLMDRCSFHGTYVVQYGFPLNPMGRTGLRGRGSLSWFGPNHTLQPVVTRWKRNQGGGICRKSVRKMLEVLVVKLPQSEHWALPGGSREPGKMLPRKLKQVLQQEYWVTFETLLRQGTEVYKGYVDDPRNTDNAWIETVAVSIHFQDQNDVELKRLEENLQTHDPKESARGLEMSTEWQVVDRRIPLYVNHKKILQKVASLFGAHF
Description: Whole cell patch clamp, endogenous TRPM2 channel in CRI-G1 cells. It counts as cell-based. The note with it: OAADPr 120-250 μM in patch pipette, n=3 cells. The protocol:
FIG. 4 a) OAADPr gates the endogenous TRPM2 channel in CRI-G1 cells. Left panel: Evolution of currents in CRI-G1 cells in the absence (grey squares) or presence (black circles) of OAADPr (120-250 μM). Shown are average leak subtracted currents from n=3 cells for each condition. Right panel: Representative leak subtracted whole cell I/V curves for peak currents observed in the absence (grey line) and presence (black line) of OAADPr. For the above measurements, CRI-G1 cells were maintained in the whole cell patch clamp configuration as previously described for HEK-293 cells (44). b) Puromycin leads to cell death in CRI-G1 cells. CRI-G1 cells were treated with 0-40 μM puromycin for 16 h. Cell viability was assessed by measuring fluorescence of calcein in live cells. Data obtained from 4 independent experiments were plotted as a percent change in fluorescence compared to those of untreated cells set at a 100%. Error bars indicate the standard deviation from the mean. […] Cell viability was assessed 16 h later as described above. […]
Patch clamp electrophysiology was performed as previously described (23). […] Currents were recorded on an EPC9 patch clamp amplifier with automatic capacitance compensation using a protocol generating a 50 msec voltage ramp from −100 to +100 mv every two seconds at a holding potential of 0 mv (appropriately corrected for liquid junction potential). […]

Data set [3] in a line: Spontaneous breakdown of OAADPr in the patch pipette. It counts as physicochemical. To be noted: multiple experiments. As to the method:
Patch clamp electrophysiology was performed as previously described (23). Briefly, cells were patch clamped in the whole cell configuration at 25° C. using pipettes with resistances ranging from 2-3 MOhms. Currents were recorded on an EPC9 patch clamp amplifier with automatic capacitance compensation using a protocol generating a 50 msec voltage ramp from −100 to +100 mv every two seconds at a holding potential of 0 mv (appropriately corrected for liquid junction potential). Bath solution included 150 mM NaCl, 2.8 mM KCl, 5 mM CsCl, 1 mM CaCl2, 2 mM MgCl2, and 10 mM Hepes (pH 7.2). Pipette solution included 135 mM CsGlutamate, 1 mM MgCl2, 8 mM NaCl, 10 mM Hepes (pH 7.2), and 10 mM EGTA. For low-resolution presentation of current development over the course of the experiment, instantaneous currents at −80 mv were extracted from each ramp and plotted versus time.

As to `NC(=O)c1cccc(N)c1` [3-aminobenzamide], the “effect on puromycin-induced cell death” value in data set [1] (1.5 mM 3-aminobenzamide, 0-50 μM puromycin, 16 h) is on record as “no effect”.
As for `C[C@@H]1C[C@@H]([C@H](O)CC2CC(=O)NC(=O)C2)C(=O)[C@@H](C)C1` [cycloheximide], the “sensitivity of TRPM2 expressing cells to cycloheximide vs cells not over-expressing the channel” value in data set [1] (0-10 μg/ml cycloheximide, 16 h) is reported as “no significant increased sensitivity”.
For the compound `NC(=O)c1cccnc1` [nicotinamide], the “effect on puromycin-induced death of CRI-G1 cells” value in the data set with CRI-G1 cells is “blocked”. Further, in data set [1] (500 μM nicotinamide, 50 μM puromycin), the “protection from puromycin-induced cell death at high puromycin” value is “suppressed”. Further, in data set [1] (500 μM nicotinamide, up to 20 μM puromycin, 16 h), the “protection from puromycin-induced cell death” value is given as “completely protect”. Also, the development of diabetes result in data set [2] is on record as “suppress the development of diabetes”. Also, in the data set on Sir2 homologs, the “NAD+-dependent histone deacetylase activity of protein extracts” value was “inhibited”.
As for O-acetyl-ADP ribose [OAADPr], the “TRPM2 gating in whole cell recordings” value on TRPM2 channel was “induces TRPM2 gating”. Moreover, on endogenous TRPM2 channel, the average currents induced is reported as around 2 nA. Besides, in data set [3], the “spontaneous breakdown of OAADPr to ADPr in the patch pipette” value is on record as 5-10%.
